From patent US10294207B2, “Pyrazole derivatives as TNIK, IKKϵ and TBK1 inhibitor and pharmaceutical composition comprising same” (GREEN CROSS CORPORATION, priority 2015, dated 2019)

Legend:
[1] = biological target: T1, TBK1 (Homo sapiens, UniProt Q9UHD2); assay: TBK1 inhibition, ADP-Glo Kinase Assay; assay type: biochemical; settings: luminometer
T1 construct: purchased Promega V3991
T1 sequence (Q9UHD2 1-729): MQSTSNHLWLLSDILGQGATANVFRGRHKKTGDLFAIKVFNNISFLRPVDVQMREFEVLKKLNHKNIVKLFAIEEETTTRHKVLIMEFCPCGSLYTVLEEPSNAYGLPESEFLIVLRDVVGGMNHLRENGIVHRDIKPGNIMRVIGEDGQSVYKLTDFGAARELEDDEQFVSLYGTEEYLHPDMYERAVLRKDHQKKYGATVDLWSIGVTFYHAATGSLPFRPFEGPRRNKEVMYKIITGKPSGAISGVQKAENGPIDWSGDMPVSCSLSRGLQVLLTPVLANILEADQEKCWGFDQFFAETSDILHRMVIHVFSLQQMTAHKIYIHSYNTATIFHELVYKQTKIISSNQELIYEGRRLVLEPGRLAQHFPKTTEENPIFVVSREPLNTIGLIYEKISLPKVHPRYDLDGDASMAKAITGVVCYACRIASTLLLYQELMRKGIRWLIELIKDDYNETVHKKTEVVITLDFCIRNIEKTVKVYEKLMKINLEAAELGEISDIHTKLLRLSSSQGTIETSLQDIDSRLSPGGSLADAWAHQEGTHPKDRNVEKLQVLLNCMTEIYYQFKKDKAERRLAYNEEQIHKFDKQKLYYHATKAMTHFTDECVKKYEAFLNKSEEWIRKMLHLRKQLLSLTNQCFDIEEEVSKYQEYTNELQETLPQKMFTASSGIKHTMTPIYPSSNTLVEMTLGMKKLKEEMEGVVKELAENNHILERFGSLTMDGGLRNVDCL
Summary of the method: (§1)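 ADP-Glo luminescence reported ADP produced by each kinase, following the kit protocol. Reactions used commercial kinase enzyme systems in buffer of 40 mM Tris (pH 7.5), 20 mM MgCl2 and 0.1 mg/mL BSA.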

[2] = biological target: T2, IKKε (Homo sapiens, UniProt Q14164); assay: IKKε inhibition, ADP-Glo Kinase Assay; assay type: biochemical; settings: luminometer
T2 construct: purchased Invitrogen PR8031B
T2 sequence (Q14164 1-716): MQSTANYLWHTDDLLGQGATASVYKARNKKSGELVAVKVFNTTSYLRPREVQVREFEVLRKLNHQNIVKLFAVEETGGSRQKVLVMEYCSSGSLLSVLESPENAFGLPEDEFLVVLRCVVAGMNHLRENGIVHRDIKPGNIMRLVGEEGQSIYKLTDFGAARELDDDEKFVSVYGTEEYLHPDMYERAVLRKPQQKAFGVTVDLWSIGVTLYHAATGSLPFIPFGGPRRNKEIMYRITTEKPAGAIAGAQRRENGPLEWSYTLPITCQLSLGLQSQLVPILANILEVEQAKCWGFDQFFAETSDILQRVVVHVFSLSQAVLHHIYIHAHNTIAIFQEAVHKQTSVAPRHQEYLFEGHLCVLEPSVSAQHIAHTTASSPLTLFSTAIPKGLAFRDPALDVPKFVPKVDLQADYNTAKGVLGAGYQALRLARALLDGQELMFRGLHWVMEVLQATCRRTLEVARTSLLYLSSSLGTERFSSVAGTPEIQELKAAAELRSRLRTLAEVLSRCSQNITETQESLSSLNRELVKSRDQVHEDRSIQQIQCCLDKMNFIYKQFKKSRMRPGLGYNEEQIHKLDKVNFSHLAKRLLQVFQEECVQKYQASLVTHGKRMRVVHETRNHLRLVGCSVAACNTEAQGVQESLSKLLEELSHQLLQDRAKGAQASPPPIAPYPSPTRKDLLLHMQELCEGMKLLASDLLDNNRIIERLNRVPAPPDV
Summary of the method: as §1

| IC50 [1] [µM] | IC50 [2] [µM] | Compound |
| --- | --- | --- |
| 0.028 | 0.11 | CC(NC(=O)c1ccc2[nH]nc(NC(=O)c3ccc(N4CCN(C)CC4)cc3)c2c1)c1ccccn1 (centres unmarked) [Example 128, 3-(4-(4-Methylpiperazin-1-yl)benzamido)-N-(1-(pyridin-2-yl)ethyl)-1H-indazole-5-carboxamide] |
| 0.022 | 0.054 | CC(C)CC(NC(=O)c1ccc2[nH]nc(NC(=O)c3ccc(N4CCN(C)CC4)cc3)c2c1)c1cccs1 (centres unmarked) [Example 129, N-(3-Methyl-1-(thiophen-2-yl)butyl)-3-(4-(4-methylpiperazin-1-yl)benzamido)-1H-indazole-5-carboxamide] |
| 0.11 | 0.9 | CC(C)CC(NC(=O)c1ccc2[nH]nc(NC(=O)c3ccc(N4CCOCC4)cc3)c2c1)c1cccs1 (centres unmarked) [Example 130, N-(3-Methyl-1-(thiophen-2-yl)butyl)-3-(4-morpholinobenzamido)-1H-indazole-5-carboxamide] |
| 0.03 | 0.14 | CCC(C)(NC(=O)c1ccc2[nH]nc(NC(=O)c3ccc(N4CCN(C)CC4)cc3)c2c1)c1cccs1 (centres unmarked) [Example 131, 3-(4-(4-methylpiperazin-1-yl)benzamido)-N-(2-(thiophen-2-yl)butan-2-yl)-1H-indazole-5-carboxamide] |
| 0.023 | 0.043 | CC(NC(=O)c1ccc2[nH]nc(NC(=O)c3ccc(N4CCOCC4)cc3)c2c1)c1ccncc1 (centres unmarked) [Example 132, 3-(4-Morpholinobenzamido)-N-(1-(pyridin-4-yl)ethyl)-1H-indazole-5-carboxamide] |
| 0.028 | 0.053 | CC(NC(=O)c1ccc2[nH]nc(NC(=O)c3ccc(N4CCN(C)CC4)cc3)c2c1)c1ccncc1 (centres unmarked) [Example 133, 3-(4-(4-Methylpiperazin-1-yl)benzamido)-N-(1-(pyridin-4-yl)ethyl)-1H-indazole-5-carboxamide] |
| 0.012 | 0.033 | CC(C)(NC(=O)c1ccc2[nH]nc(NC(=O)c3ccc(N4CCOCC4)cc3)c2c1)c1cccs1 [Example 134, 3-(4-Morpholinobenzamido)-N-(2-(thiophen-2-yl)propan-2-yl)-1H-indazole-5-carboxamide] |
| 0.0085 | 0.038 | CN1CCN(c2ccc(C(=O)Nc3n[nH]c4ccc(C(=O)NC(c5cccs5)C(F)(F)F)cc34)cc2)CC1 (centres unmarked) [Example 135, 3-(4-(4-Methylpiperazin-1-yl)benzamido)-N-(2,2,2-trifluoro-1-(thiophen-2-yl)ethyl)-1H-indazole-5-carboxamide] |
| 0.0057 | 0.024 | CN1CCN(c2ccc(C(=O)Nc3n[nH]c4ccc(C(=O)NC(C)(C)c5cccs5)cc34)cc2)CC1 [Example 136, 3-(4-(4-Methylpiperazin-1-yl)benzamido)-N-(2-(thiophen-2-yl)propan-2-yl)-1H-indazole-5-carboxamide] |
| 0.0049 | 0.032 | C[C@H]1CN(c2ccc(C(=O)Nc3n[nH]c4ccc(C(=O)NC(C)(C)c5cccs5)cc34)cc2)CCN1 [Example 137, (S)-3-(4-(3-Methylpiperazin-1-yl)benzamido)-N-(2-(thiophen-2-yl)propan-2-yl)-1H-indazole-5-carboxamide] |
| 0.039 | 0.12 | O=C(Nc1n[nH]c2ccc(C(=O)NC(c3cccs3)C(F)(F)F)cc12)c1ccc(N2CCOCC2)cc1 (centres unmarked) [Example 138, 3-(4-Morpholinobenzamido)-N-(2,2,2-trifluoro-1-(thiophen-2-yl)ethyl)-1H-indazole-5-carboxamide] |
| 0.1 | 0.34 | O=C(Nc1n[nH]c2ccc(C(=O)NC(c3ccccn3)C3CC3)cc12)c1ccc(N2CCOCC2)cc1 (centres unmarked) [Example 139, N-(Cyclopropyl(pyridin-2-yl)methyl)-3-(4-morpholinobenzamido)-1H-indazole-5-carboxamide] |
| 0.084 | 0.27 | CN1CCN(c2ccc(C(=O)Nc3n[nH]c4ccc(C(=O)NC(c5ccccn5)C5CC5)cc34)cc2)CC1 (centres unmarked) [Example 140, N-(Cyclopropyl(pyridin-2-yl)methyl)-3-(4-(4-methylpiperazin-1-yl)benzamido)-1H-indazole-5-carboxamide] |
| 0.024 | 0.38 | CN1CCN(c2ccc(C(=O)Nc3n[nH]c4ccc(NC(=O)Cc5cccs5)cc34)cc2)CC1 [Example 141, 4-(4-Methylpiperazin-1-yl)-N-(5-(2-(thiophen-2-yl)acetamido)-1H-indazol-3-yl)benzamide] |
| 0.067 | 0.096 | O=C(Nc1n[nH]c2ccc(C(=O)NC(c3cccnc3)C3CC3)cc12)c1ccc(N2CCOCC2)cc1 (centres unmarked) [Example 142, N-(Cyclopropyl(pyridin-3-yl)methyl)-3-(4-morpholinobenzamido)-1H-indazole-5-carboxamide] |
| 0.071 | 0.12 | CN1CCN(c2ccc(C(=O)Nc3n[nH]c4ccc(C(=O)NC(c5cccnc5)C5CC5)cc34)cc2)CC1 (centres unmarked) [Example 143, N-(Cyclopropyl(pyridin-3-yl)methyl)-3-(4-(4-methylpiperazin-1-yl)benzamido)-1H-indazole-5-carboxamide] |
| 0.069 | 0.25 | O=C(Cc1cccs1)Nc1ccc2[nH]nc(NC(=O)c3ccc(N4CCOCC4)cc3)c2c1 [Example 144, 4-Morpholino-N-(5-(2-(thiophen-2-yl)acetamido)-1H-indazol-3-yl)benzamide] |
| 0.012 | 0.033 | CN1CCN(c2ccc(C(=O)Nc3n[nH]c4ccc(C(=O)NC(C)(C)c5ccsc5)cc34)cc2)CC1 [Example 145, 3-(4-(4-methylpiperazin-1-yl)benzamido)-N-(2-(thiophen-3-yl)propan-2-yl)-1H-indazole-5-carboxamide] |
| 0.019 | 0.065 | CN1CCN(c2ccc(C(=O)Nc3n[nH]c4ccc(C(=O)NCc5ccc(Cl)s5)cc34)cc2)CC1 [Example 146, N-((5-chlorothiophen-2-yl)methyl)-3-(4-(4-methylpiperazin-1-yl)benzamido)-1H-indazole-5-carboxamide] |
| 0.11 | 0.34 | CN1CCN(c2ccc(C(=O)Nc3n[nH]c4ccc(C(=O)NC5(c6cccs6)CCCCC5)cc34)cc2)CC1 [Example 147, 3-(4-(4-Methylpiperazin-1-yl)benzamido)-N-(1-(thiophen-2-yl)cyclohexyl)-1H-indazole-5-carboxamide] |
| 0.004 | 0.031 | O=C(NCc1cccs1)c1ccc2[nH]nc(NC(=O)c3ccc(N4CCOCC4)cc3)c2c1 [Example 148, 3-(4-Morpholinobenzamido)-N-(thiophen-2-ylmethyl)-1H-indazole-5-carboxamide] |
| 0.0075 | 0.032 | CN1CCN(c2ccc(C(=O)Nc3n[nH]c4ccc(C(=O)NCc5cccs5)cc34)cc2)CC1 [Example 149, 3-(4-(4-methylpiperazin-1-yl)benzamido)-N-(thiophen-2-ylmethyl)-1H-indazole-5-carboxamide] |
| 0.0072 | 0.049 | COCCNc1ccc(C(=O)Nc2n[nH]c3ccc(C(=O)NCc4cccs4)cc23)cc1 [Example 150, 3-(4-((2-methoxyethyl)amino)benzamido)-N-(thiophen-2-ylmethyl)-1H-indazole-5-carboxamide] |
| 0.0079 | 0.052 | COCCCNc1ccc(C(=O)Nc2n[nH]c3ccc(C(=O)NCc4cccs4)cc23)cc1 [Example 151, 3-(4-((3-Methoxypropyl)amino)benzamido)-N-(thiophen-2-ylmethyl)-1H-indazole-5-carboxamide] |
| 0.004 | 0.092 | O=C(NCc1cccs1)c1ccc2[nH]nc(NC(=O)c3ccc(NCCN4CCCC4)cc3)c2c1 [Example 152, 3-(4-((2-(Pyrrolidin-1-yl)ethyl)amino)benzamido)-N-(thiophen-2-ylmethyl)-1H-indazole-5-carboxamide] |
